Values quoted from earlier work, collected in US20250375533A1, “Sublingual Formulation of Anticancer Compound for Use in the Treatment of Autoimmune Neurodegenerative Diseases” (Vektor Pharma TF GmbH, priority 2022, published 2025).
Where two headings read alike, the source gives them in different places.

Assays:
[1] = in vivo
[2] = saliva
[3] = administered rectally
[4] = tested on: Bacteroides fragilis
[5] = oral solution without HPβCD
[6] = tested on: whole feces
[7] = 37° C.
[8] = target: BCRP (ABCG2) transporter proteins (Homo sapiens, UniProt Q9UNQ0)
[9] = tested on: Enterococcus faecalis
[10] = tested on: Clostridium perfringens; conditions: Clostridium perfringens culture
[11] = pH 1.4 solution; for active substance maintained: with cyclodextrins
[12] = tested on: Escherichia coli; conditions: Escherichia coli culture

BCRP (ABCG2) transporter proteins, sequence (Q9UNQ0 whole entry): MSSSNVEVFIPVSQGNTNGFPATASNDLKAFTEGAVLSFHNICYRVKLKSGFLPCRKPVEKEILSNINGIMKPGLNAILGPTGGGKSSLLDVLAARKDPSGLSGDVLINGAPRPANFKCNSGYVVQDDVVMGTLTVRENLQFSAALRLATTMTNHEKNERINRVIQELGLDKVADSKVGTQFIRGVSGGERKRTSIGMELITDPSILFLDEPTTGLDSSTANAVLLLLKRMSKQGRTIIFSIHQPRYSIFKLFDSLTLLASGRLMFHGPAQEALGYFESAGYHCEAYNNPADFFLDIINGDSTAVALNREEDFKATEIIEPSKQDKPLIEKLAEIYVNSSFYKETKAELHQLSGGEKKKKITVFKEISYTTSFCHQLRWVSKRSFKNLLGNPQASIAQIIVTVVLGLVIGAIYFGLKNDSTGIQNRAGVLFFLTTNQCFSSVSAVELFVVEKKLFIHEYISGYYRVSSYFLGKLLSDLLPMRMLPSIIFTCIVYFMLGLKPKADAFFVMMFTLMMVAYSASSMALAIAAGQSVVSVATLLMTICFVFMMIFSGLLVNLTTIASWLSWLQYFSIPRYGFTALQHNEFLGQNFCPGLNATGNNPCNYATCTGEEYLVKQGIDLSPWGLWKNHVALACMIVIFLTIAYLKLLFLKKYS

## Nc1nc(Cl)nc2c1ncn2[C@H]1C[C@H](O)[C@@H](CO)O1 [Mavenclad]
[1]
  interpatient variability, CV %, AUC inf: 29.2%
  interpatient variability, CV %, AUC t: 29.8%
  interpatient variability, CV %, Cmax: 43.0%

## Nc1nc(Cl)nc2c1ncn2[C@H]1C[C@H](O)[C@@H](CO)O1 [cladribine, 2-chloro-2′-deoxyadenosine]
[2]
  degradation: slowly or not at all
[3]
  bioavailability: 21%
[4]
  degradation: slowly or not at all
[5]
  bioavailability after oral administration: 35.3%
[6]
  degradation (deglycosylation to Cloroadenine): rapidly deglycosylated
[7]; pH 1.0 solutions
  tin value of cladribine: 0.37 h
[7]; pH 2.0 solutions
  tin value of cladribine: 1.6 h
[8]
  substrate of BCRP (ABCG2) transporter proteins: substrate of BCRP
[9]
  degradation: slowly or not at all
[10]
  degradation (deglycosylation to Cloroadenine): rapidly deglycosylated
[11]; absence of cyclodextrins, after 8 hours
  active substance remained in solution: 15%
[11]; absence of cyclodextrins, after about 3 hours
  active substance lost: about 50%
[11]; 8 hours
  active substance maintained: approximately 70%
[11]; almost 5 hours
  active substance maintained: more than 80%
other
  solubility in water: slightly soluble
[12]
  degradation (deglycosylation to Cloroadenine): rapidly deglycosylated
